Experimental data reported in patent publication US20100222349A1, “QUINOLINE DERIVATIVES USED TO TREAT INFLAMMATORY AND ALLERGIC DISEASES” (Glaxo Group Limited, priority 2007, published 2010).

Experiments:
histamine H3 receptor = molecular target: T1, histamine H3 receptor (Homo sapiens, UniProt Q9Y5N1); test: Histamine H3 functional antagonist assay (GTPγS, membranes); type: biochemical; conditions: CHO K1 membranes, [35S]-GTPγS, histamine at EC80; read-out: average pKi (pKb) at H3 (converted)
T1 construct: expressed in transfected cells; host or cells: CHO K1 cells with pSwitch/pGeneH3 (GeneSwitch, mifepristone-induced), clone 3H3; membrane preparation
T1 sequence (Q9Y5N1 whole entry, species assumed): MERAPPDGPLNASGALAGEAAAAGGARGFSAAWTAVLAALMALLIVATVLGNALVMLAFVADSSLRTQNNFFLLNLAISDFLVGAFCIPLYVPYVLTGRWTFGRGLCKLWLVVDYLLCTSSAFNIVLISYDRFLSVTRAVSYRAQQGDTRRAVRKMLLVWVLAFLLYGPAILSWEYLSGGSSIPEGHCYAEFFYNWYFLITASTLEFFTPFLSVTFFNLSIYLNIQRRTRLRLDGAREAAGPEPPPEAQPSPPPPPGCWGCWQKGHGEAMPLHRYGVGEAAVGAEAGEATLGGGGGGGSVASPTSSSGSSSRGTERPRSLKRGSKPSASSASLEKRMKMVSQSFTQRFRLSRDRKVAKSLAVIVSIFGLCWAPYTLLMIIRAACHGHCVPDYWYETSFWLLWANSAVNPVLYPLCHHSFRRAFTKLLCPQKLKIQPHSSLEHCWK
Experimental: The histamine H3 cDNA is isolated from its holding vector, pcDNA3.1 TOPO (InVitrogen), by restriction digestion of plasmid DNA with the enzymes BamH1 and Not-1 and is ligated into the inducible expression vector pGene (InVitrogen) digested with the same enzymes. The GeneSwitchTM system (a system where in transgene expression is switched off in the absence of an inducer and switched on in the presence of an inducer) is performed as described in U.S. Pat. Nos. 5,364,791; 5,874,534; and 5,935,934. Ligated DNA is transformed into competent DH5α E. coli host bacterial cells and is plated onto Luria Broth (LB) agar containing ZeocinTM (an antibiotic which allows the selection of cells expressing the sh ble gene which is present on pGene and pSwitch) at 50 μgml^-1. Colonies containing the re-ligated plasmid are identified by restriction analysis. DNA for transfection into mammalian cells is prepared from 250 ml cultures of the host bacterium containing the […]3 plasmid and is isolated using a DNA preparation kit (Qiagen Midi-Prep) as per manufacturers guidelines (Qiagen). CHO K1 cells previously transfected with the pSwitch regulatory plasmid (InVitrogen) are seeded at 2×10^6 cells per T75 flask in Complete Medium, containing Hams F12 (GIBCOBRL, Life Technologies) medium supplemented with 10% v/v dialysed foetal bovine serum, L-glutamine, and hygromycin (100 μgml^-1), 24 h prior to use. Plasmid DNA is transfected into the cells using Lipofectamine plus according to the manufacturer's guidelines (InVitrogen). 48 h post transfection, cells are placed into complete medium supplemented with 500 μgml^-1 ZeocinTM. 10-14 days post selection, 10 nM Mifepristone (InVitrogen) is added to the culture medium to induce the expression of the receptor. 18 h post induction, cells are detached from the flask using ethylenediamine tetra-acetic acid (EDTA; 1:5000; InVitrogen), following several washes with PBS, pH 7.4 and are resuspended in Sorting Medium containing Minimum Essential Medium (MEM), without phenol red, and are supplemented with Earles salts and 3% Foetal Clone II (Hyclone). Approximately 1×10^7 cells are examined for receptor expression by staining with a rabbit polyclonal antibody, 4a, raised against the N-terminal domain of the histamine H3 receptor, are incubated on ice for 60 min, followed by two washes in sorting medium. Receptor bound antibody is detected by incubation of the cells for 60 min on ice with a goat anti rabbit antibody, conjugated with Alexa 488 fluorescence marker (Molecular Probes). Following two further washes with Sorting Medium, cells are filtered through a 50 μm FilconTM (BD Biosciences) and then are analysed on a FACS Vantage SE Flow Cytometer fitted with an Automatic Cell Deposition Unit. Control cells are non-induced cells treated in an analogous manner. Positively stained cells are sorted as single cells into 96-well plates, containing Complete Medium containing 500 μgml^-1 ZeocinTM and are allowed to expand before reanalysis for receptor expression via antibody and ligand binding studies. One clone, 3H3, is selected for membrane preparation. All steps of the protocol are carried out at 4° C. and with pre-cooled reagents. The cell pellet is resuspended in 10 volumes of homogenisation buffer (50 mM N-2-hydroxyethylpiperazine-N'-2-ethanesulfonic acid (HEPES), 1 mM ethylenediamine tetra-acetic acid (EDTA), pH 7.4 with KOH, supplemented with 10^-6 M leupeptin (acetyl-leucyl-leucyl-arginal; Sigma L2884), 25 μgml^-1 bacitracin (Sigma B0125), 1 mM phenylmethylsulfonyl fluoride (PMSF) and 2×10^-6 M pepstain A (Sigma)). The cells are then homogenised by 2×15 sec bursts in a 1 L glass Waring blender, followed by centrifugation at 500 g for 20 min. The supernatant is then spun at 48,000 g for 30 min. The pellet is resuspended in homogenisation buffer (4× the volume of the original cell pellet) by vortexing for 5 sec, followed by homogenisation in a Dounce homogeniser (10-15 strokes). […]

human H1 receptor = molecular target: T2, human H1 receptor (Homo sapiens, UniProt P35367); test: Histamine H1 functional antagonist assay: determination of functional pKi values (FLIPR); type: cell-based; conditions: CHO cells expressing human H1 receptor, histamine at EC80, read-out: average pKi (pKb) at H1 (converted)
T2 construct: expressed in transfected cells
T2 sequence (P35367 whole entry): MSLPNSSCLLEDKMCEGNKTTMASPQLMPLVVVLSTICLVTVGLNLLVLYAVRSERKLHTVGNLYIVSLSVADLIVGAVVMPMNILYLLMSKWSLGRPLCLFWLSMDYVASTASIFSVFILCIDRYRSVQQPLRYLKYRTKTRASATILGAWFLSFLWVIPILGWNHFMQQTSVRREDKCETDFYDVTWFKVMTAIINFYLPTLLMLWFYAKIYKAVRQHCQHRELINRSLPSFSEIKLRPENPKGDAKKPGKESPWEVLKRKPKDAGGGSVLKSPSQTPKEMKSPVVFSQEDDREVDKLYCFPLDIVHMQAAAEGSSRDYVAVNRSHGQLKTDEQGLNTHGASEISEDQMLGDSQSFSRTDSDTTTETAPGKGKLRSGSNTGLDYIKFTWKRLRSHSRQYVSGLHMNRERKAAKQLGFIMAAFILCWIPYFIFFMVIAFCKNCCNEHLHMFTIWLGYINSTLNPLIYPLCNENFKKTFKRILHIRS
Experimental: The human H1 receptor is cloned using known procedures described in the literature [Biochem. Biophys. Res. Commun., 201(2):894 (1994)]. Chinese hamster ovary (CHO) cells stably expressing the human H1 receptor are generated according to known procedures described in the literature [Br. J. Pharmacol., 117(6):1071 (1996)]. The histamine H1 cell line is seeded into non-coated black-walled clear bottom 384-well tissue culture plates in alpha minimum essential medium (Gibco/Invitrogen, cat no. 22561-021), supplemented with 10′)/0 dialysed foetal calf serum (Gibco/Invitrogen cat no. 12480-021) and 2 mM L-glutamine (Gibco/Invitrogen cat no 25030-024) and is maintained overnight at 5% CO2, 37° C. Excess medium is removed from each well to leave 10 μl. 30 μl loading dye (250 μM Brilliant Black, 2 μM Fluo-4 diluted in Tyrodes buffer+probenecid (145 mM NaCl, 2.5 mM KCl, 10 mM HEPES, 10 mM D-glucose, 1.2 mM MgCl2, 1.5 mM CaCl2, 2.5 mM probenecid, pH adjusted to 7.40 with NaOH 1.0 M)) is added to each well and the plates are incubated for 60 min at 5% CO2, 37° C. 10 μl of test compound, diluted to the required concentration in Tyrodes buffer+probenecid (or 10 μl Tyrodes buffer+probenecid as a control) is added to each well and the plate is incubated for 30 min at 37° C., 5% CO2. The plates are then placed into a FLIPR™(Molecular Devices, UK) to monitor cell fluorescence (λex=488 nm, λEM=540 nm) in the manner described in Sullivan et al., (In: Lambert DG (ed.), Calcium Signaling Protocols, New Jersey: Humana Press, 1999, 125-136) before and after the addition of 10 μl histamine at a concentration that results in the final assay concentration of histamine being EC80. Functional antagonism is indicated by a suppression of histamine induced increase in fluorescence, as measured by the FLIPR™ system (Molecular Devices). By means of concentration effect curves, functional affinities are determined using standard pharmacological mathematical analysis.

Row | SMILES | Ki (histamine H3 receptor) [nM] | Ki (human H1 receptor) [nM]
1 | CCCCc1cc(OC2CCN(CCCC(=O)NCCOC)CC2)c2ncccc2c1 [Example 23, 4-{4-[(6-butyl-8-quinolinyl)oxy]-1-piperidinyl}-N-[2-(methyloxy)ethyl] butanamide] | > 3160 | < 10
2 | CCCCc1cc(O[C@@H]2CCN(CCC(=O)N(CC)CC)C2)c2ncccc2c1 [Example 35, 3-{(3R)-3-[(6-butyl-8-quinolinyl)oxy]-1-pyrrolidinyl}-N,N-diethylpropanamide] | > 316 | < 10
3 | CCCCc1cc(O[C@@H]2CCN(CCC(=O)NC(C)(C)C)C2)c2ncccc2c1 [Example 36, 3-{(3R)-3-[(6-butyl-8-quinolinyl)oxy]-1-pyrrolidinyl}-N-(1,1-dimethylethyl) propanamide] | > 316 | < 10
4 | CCCCc1cc(O[C@@H]2CCN(CCCC(=O)NC(C)(C)C)C2)c2ncccc2c1 [Example 37, 4-{(3R)-3-[(6-butyl-8-quinolinyl)oxy]-1-pyrrolidinyl}-N-(1,1-dimethylethyl) butanamide] | > 316 | < 10
5 | CCCCc1cc(OC2CCN(C[C@H]3CC[C@H](C(=O)NC(C)C)CC3)CC2)c2ncccc2c1 [Example 42, Trans-4-({4-[(6-butyl-8-quinolinyl)oxy]-1-piperidinyl}methyl)-N-(1-methylethyl)cyclohexanecarboxamide] | > 316 | < 100
6 | CCCCc1cc(OC2CCN(C[C@H]3CC[C@H](C(=O)NCCC)CC3)CC2)c2ncccc2c1 [Example 45, Trans-4-({4-[(6-butyl-8-quinolinyl)oxy]-1-piperidinyl}methyl)-N-propylcyclohexane carboxamide] | > 316 | < 10
7 | CCCCc1cc(OC2CCN(C[C@H]3CC[C@H](C(=O)NCC(C)(C)C)CC3)CC2)c2ncccc2c1 [Example 46, trans-4-({4-[(6-butyl-8-quinolinyl)oxy]-1-piperidinyl}methyl)-N-(2,2-dimethylpropyl) cyclohexane carboxamide] | > 316 | < 100
8 | CCCCc1cc(OC2CCN(C[C@H]3CC[C@H](C(=O)NCCCOC)CC3)CC2)c2ncccc2c1 [Example 47, trans-4-({4-[(6-butyl-8-quinolinyl)oxy]-1-piperidinyl}methyl)-N-[3-(methyloxy)propyl]cyclohexane carboxamide] | > 316 | < 10
9 | CCCCCCc1cc(OC2CCN(C[C@H]3CC[C@H](C(=O)Nc4ccc(C)cc4)CC3)CC2)c2ncccc2c1 [Example 48, trans-4-({4-[(6-hexyl-8-quinolinyl)oxy]-1-piperidinyl}methyl)-N-(4-methylphenyl) cyclohexane carboxamide] | > 316 | < 100
10 | CCCCCCc1cc(OC2CCN(C[C@H]3CC[C@H](C(=O)NCc4ccc(C)cc4)CC3)CC2)c2ncccc2c1 [Example 49, trans-4-({4-[(6-hexyl-8-quinolinyl)oxy]-1-piperidinyl}methyl)-N-[(4-methylphenyl)methyl]cyclohexane carboxamide] | > 316 | < 100

More lines, now with the values ahead:

Row | Ki (histamine H3 receptor) [nM] | Ki (human H1 receptor) [nM] | SMILES
11 | > 3160 | < 100 | CCCCc1cc(OC2CCN(CCCC(=O)N3CCCCC3)CC2)c2ncccc2c1 [Example 24, 6-butyl-8-({1-[4-oxo-4-(1-piperidinyl)butyl]-4-piperidinyl}oxy)quinoline]
12 | > 3160 | < 10 | CCCCc1cc(OC2CCN(CCCC(=O)NC(C)C)CC2)c2ncccc2c1 [Example 25, 4-{4-[(6-butyl-8-quinolinyl)oxy]-1-piperidinyl}-N-(1-methylethyl)butanamide]
13 | > 3160 | < 100 | CCCCc1cc(OC2CCN(CCCCC(=O)NCCCOC)CC2)c2ncccc2c1 [Example 26, 5-{4-[(6-butyl-8-quinolinyl)oxy]-1-piperidinyl}-N-[3-(methyloxy)propyl]pent-anamide]
14 | > 3160 | < 10 | CCCCc1cc(OC2CCN(CCCCC(=O)N(CC)CC)CC2)c2ncccc2c1 [Example 27, 5-{4-[(6-butyl-8-quinolinyl)oxy]-1-piperidinyl}-N,N-diethylpentanamide]
15 | > 3160 | < 10 | CCCCc1cc(OC2CCN(CCCCC(=O)NCCC)CC2)c2ncccc2c1 [Example 28, 5-{4-[(6-butyl-8-quinolinyl)oxy]-1-piperidinyl}-N-propylpentanamide]
16 | > 3160 | < 100 | CCCCc1cc(OC2CCN(CCCCC(=O)NCCOC)CC2)c2ncccc2c1 [Example 29, 5-{4-[(6-butyl-8-quinolinyl)oxy]-1-piperidinyl}-N-[2-(methyloxy)ethyl] pentanamide]
17 | > 3160 | < 100 | CCCCc1cc(OC2CCN(CCCCC(=O)NC(C)(C)C)CC2)c2ncccc2c1 [Example 30, 5-{4-[(6-butyl-8-quinolinyl)oxy]-1-piperidinyl}-N-(1,1-dimethylethyl) pentanamide]
18 | > 3160 | < 10 | CCCCc1cc(OC2CCN(CCCCC(=O)N3CCCCC3)CC2)c2ncccc2c1 [Example 31, 6-butyl-8-({1-[5-oxo-5-(1-piperidinyl)pentyl]-4-piperidinyl}oxy) quinoline]
19 | > 316 | < 10 | CCCCc1cc(O[C@@H]2CCN(CCC(=O)N3CCCCC3)C2)c2ncccc2c1 [Example 33, 6-butyl-8-({(3R)-1-[3-oxo-3-(1-piperidinyl)propyl]-3-pyrrolidinyl}oxy)quinoline]
20 | > 316 | < 10 | CCCCc1cc(O[C@@H]2CCN(CCCC(=O)N3CCCCC3)C2)c2ncccc2c1 [Example 34, 6-butyl-8-({(3R)-1-[4-oxo-4-(1-piperidinyl)butyl]-3-pyrrolidinyl}oxy)quinoline]
21 | > 316 | < 10 | CCCCc1cc(O[C@H]2CCN(CCCC(=O)N3CCCCC3)C2)c2ncccc2c1 [Example 39, 6-butyl-8-({(3S)-1-[4-oxo-4-(1-piperidinyl)butyl]-3-pyrrolidinyl}oxy)quinoline]
